Source: patent US20200237852A1, “Small Molecule Enhancers of Paneth Cell Function and Differentiation” (Massachusetts Institute of Technology, priority 2019, published 2020)

Key:
[1] = tested on: ISC-enriched organoids in ENR+CD; test: 384-well primary screen of 6-day PC differentiation, secreted LYZ (LYZ.NS, LYZ.S); type: cell-based, C57BL/6 mice; details: 6-day ENR+CD+library treatment; SSMD > 0.997 and z-scored FC > 1.282
Procedure: This library offers translational advantages as many of the molecules are either presently used in the clinic for a wide variety of conditions or have been used in clinical trials and animal models.
To prepare for “2.5D” plating, cell-laden Matrigel and media were homogenized via mechanical disruption and centrifuged at 300 g for 3 min at 4° C. Supernatant was removed and the pellet washed and spun in basal culture medium repeatedly until the cloudy Matrigel above the cell pellet was gone. On the final wash, pellet was resuspended in basal culture medium, the number of organoids counted, and the cell pellet was resuspended in ENR+CD medium at ˜7 clusters/μL. 384-well plates were first filled with 10 μL of 70% Matrigel (30% basal media) coating in each well using a Tecan Evo 150 Liquid Handling Deck, and allowed to gel at 37° C. for 5 minutes. […] Compound libraries were pinned into prepped cell plates using 50 nL pins into 30 μL media/well. Cells were cultured at 37° C. with 5% CO2 for six days in ENR+CD medium supplemented with the tested compounds with a media change at three days. On day six, lysozyme secretion and cell viability were assessed using Lysozyme Assay Kit (EnzChek) and CellTiter-Glo 3D Cell Viability Assay (Promega), respectively, according to the manufacturers' protocols. […]

[2] = tested on: ISC-enriched organoids in ENR+CD; test: 384-well secondary screen in ENR+CD incl. early vs. full treatment, secreted LYZ (LYZ.NS, LYZ.S); type: cell-based, C57BL/6 mice
Description: We again assessed treatment effect size with replicate SSMD (using a difference between well replicates and median assay value for all same-plate control wells—see Materials and Methods, High-throughput screening: 384-well secondary screen format and early vs. full treatment analysis) and hits were considered statistically validated by an SSMD greater than the false-positive-derived cutoffs (βα1=0.89 for 8 replicates with alpha=0.05; see Materials and Methods, High-throughput screening: 384-well secondary screen format and early vs. full treatment analysis) for both LYZ.NS and LYZ.S assays (FIG. 7A). Per this new cutoff, 10 dose-treatment combinations corresponding to 7 small molecules were chosen as hits, with every passing dose-treatment having a greater than 0 ATP effect size.
For 384-well plate high-throughput screening, ISC-enriched organoids were passaged and split to single cells with TyrpLE (Thermo Fisher Scientific) and cultured for 2-3 days in ENR+CVY prior to transfer to a “2.5-D” 384-well plate culture system. To prepare for “2.5D” plating, cell-laden Matrigel and media were homogenized via mechanical disruption and centrifuged at 300 g for 3 min at 4° C. Supernatant was removed and the pellet washed and spun in basal culture medium repeatedly until the cloudy Matrigel above the cell pellet was gone. On the final wash, pellet was resuspended in basal culture medium, the number of organoids counted, and the cell pellet was resuspended in ENR+CD medium at ˜7 clusters/μL. 384-well plates were first filled with 10 μL of 70% Matrigel (30% basal media) coating in each well using a Tecan Evo 150 Liquid Handling Deck, and allowed to gel at 37° C. for 5 minutes. Then 30 μL of cell-laden media was plated at the center of each well of 384-well plates with the liquid handler, and the plates were spun down at 50 g for 1 minute to embed organoids on the Matrigel surface. Compound libraries were pinned into prepped cell plates using 50 nL pins into 30 μL media/well. Cells were cultured at 37° C. with 5% CO2 for six days in ENR+CD medium supplemented with the tested compounds with a media change at three days. On day six, lysozyme secretion and cell viability were assessed using Lysozyme Assay Kit (EnzChek) and CellTiter-Glo 3D Cell Viability Assay (Promega), respectively, according to the manufacturers' protocols. Briefly, screen plates were washed 3× with FluoroBrite basal media (2 mM GlutaMAX and 10 mM HEPES in FluoroBrite DMEM (Thermo Fisher Scientific)) using a BioTek 406 plate washer with 10 min incubations followed by a 1 min centrifugation at 200 g to settle media between washes. After removal of the third wash, 30 μL of non-stimulated FluoroBrite basal media was added to each screen well using a Tecan Evo 150 Liquid Handling Deck from a non-stimulated treatment master plate, and plates were incubated for 30 min at 37° C. After 30 minutes, the top 15 μL of media from each well of the screen plate was transferred to a non-stimulated LYZ assay plate containing 15 μL of 20× DQ LYZ assay working solution using a Tecan Evo 150 Liquid Handling Deck. The non-stimulated LYZ assay plate was covered, shaken for 10 min, incubated for 50 min at 37° C., then fluorescence measured (shake 10 s; […]/518 nm) using a Tecan M1000 Plate Reader. After the media transfer to the non-stimulated LYZ assay plate, the remaining media was removed from the screen plate and 30 μL of Stimulated FluoroBrite basal media (supplemented with 10 μM CCh) was added to each screen well using a Tecan Evo 150 Liquid Handling Deck from a stimulated treatment master plate, and plates were incubated for 30 min at 37° C. After 30 minutes, the top 15 μL of media from each well of the screen plate was transferred to a stimulated LYZ assay plate containing 15 μL of 20× DQ LYZ assay working solution using a Tecan Evo 150 Liquid Handling Deck. […]

[3] = tested on: mature PC (CD24-mid & LYZ+) and secretory precursor (CD24-hi) populations; test: Flow cytometry profiling of organoids in 2.5-D (CD24, LYZ); type: cell-based, C57BL/6 mice; details: 6-day ENR+CD+treatment, fraction of viable cells, n=3 bio. donors
Description: Cells processed for flow cytometry were first gated to exclude potential debris or doublets (via widely accepted forward and side scatter gating), and subsequently gated for viability (via Zombie-violet viability dye exclusion), all viable cells were considered for CD24 & LYZ expression analysis. […] For flow cytometry profiling of the 6 validate small molecules, ISC-enriched ‘small clusters’ in 3D Matrigel culture were passaged to a “2.5D” 96-well plate culture system for six days of ENR, or ENR+CD+drug culture in the same manner as described previously with the exception of plating in 96-well plates prepared with a polymerized 70% Matrigel coating in each well. Plates were centrifuged at 50 g for 1 min at 4° C. to allow for cells to partially embed in Matrigel coating. Drugs were pinned into their respective wells using the Tecan from a drug stamp plate. Media was changed at day three, including pinning of the drug treatments. At day six, cells were washed 3× with basal media, then harvested from Matrigel by mechanical disruption in TrypLE Express to remove Matrigel and dissociate organoids to single cells. After vigorous pipetting and incubation at 37° C. for 20 mins, dissociated organoids were strained through a 96-well filter plate with a 30-40 μm filter (Pall) into an ultra low-bind 96-well plate (Costar) by centrifuging at 300×g for 3 mins at 4° C. The cell filtrate was centrifuged again at 300×g for 3 mins at 4° C. to pellet the cells. Cell pellets were resuspended in FACS buffer (2% FBS in PBS0), then transferred to an ultra low-bind 96-well plate for flow prep. Cells were stained with Zombie-violet viability dye (BioLegend) at 100× for viability staining and/or antibody staining solution. FITC-conjugated antibody for lysozyme and APC-conjugated antibody for CD24 were used at 100× dilution (BioLegend). Flow cytometry was performed using a LSR Fortessa (BD; Koch Institute Flow Cytometry Core at MIT). Flow cytometry data was analyzed using FlowJo X v10.1 software.

[4] = tested on: conventional organoid (ENR); test: 384-well screen in conventional organoid (ENR), secreted LYZ (LYZ.NS, LYZ.S); type: cell-based, C57BL/6 mice; details: 6-day ENR+treatment, single treatment-dose
6-day ENR+CD cells [5] = test: Short-term (3-hour) stimulation of LYZ secretion, 2.5-D 96-well platform; type: cell-based, murine; details: 3-hour stimulation, across all tested doses
Description: We first sought to profile the potential short-term actors, IFN-γ, LPS, and CCh, and see if with the added resolution of this first-of-its-kind PC platform, we might be able to determine high-resolution EC50's. To generate sufficient cells for plating out all necessary conditions we first expanded and enriched ISCs in traditional 3-D culture and subsequently differentiated for 4 days towards PCs (ENR+CD). Next, we passaged and plated these cells into 96-well plates as 2.5-D and continued differentiating for an additional 2 days in ENR+CD. On day 6 of differentiation, each well was then washed with basal media repeatedly and stimulated with its respective agent, with a measurement of supernatant LYZ paired to cell pellet ATP (FIG. 2A). This screen was repeated on three separate occasions with cells from three distinct murine donors and analyzed combined. We first wanted to determine the approximate standardized effect size of each treatment at each dose, which was accomplished through the replicate-based strictly standardized mean difference (SSMD), an effect size measure based on the statistics of contrast variables, and particularly useful in screening applications as it is a measure which takes into account both mean difference and variance in a single measure. […] In total, we see that our 2.5-D platform does provide a reasonable system for assessing and screening for potential short-term modulators of PC antimicrobial secretion.
Small intestinal crypts were isolated from C57BL/6 mice of both sexes, aged between three to six months in all experiments. Crypts were then cultured in a Matrigel culture system. Briefly, crypts were resuspended in basal culture medium (Advanced DMEM/F12 with 2 mM GlutaMAX and 10 mM HEPES; Thermo Fisher Scientific) at a 1:1 ratio with Corning™ Matrigel™ Membrane Matrix—GFR (Fisher Scientific) and plated at the center of each well of 24-well plates. […]

6-day ENR+CD cells [6] = test: Cell pellet ATP after short-term (3-hour) stimulation, 2.5-D 96-well platform; type: cell-based, murine; details: CCh: adj. p<0.01 for 10 and 100 μM doses
Description: We first sought to profile the potential short-term actors, IFN-γ, LPS, and CCh, and see if with the added resolution of this first-of-its-kind PC platform, we might be able to determine high-resolution EC50's. To generate sufficient cells for plating out all necessary conditions we first expanded and enriched ISCs in traditional 3-D culture and subsequently differentiated for 4 days towards PCs (ENR+CD). Next, we passaged and plated these cells into 96-well plates as 2.5-D and continued differentiating for an additional 2 days in ENR+CD. On day 6 of differentiation, each well was then washed with basal media repeatedly and stimulated with its respective agent, with a measurement of supernatant LYZ paired to cell pellet ATP (FIG. 2A). This screen was repeated on three separate occasions with cells from three distinct murine donors and analyzed combined. We first wanted to determine the approximate standardized effect size of each treatment at each dose, which was accomplished through the replicate-based strictly standardized mean difference (SSMD), an effect size measure based on the statistics of contrast variables, and particularly useful in screening applications as it is a measure which takes into account both mean difference and variance in a single measure. […]

6-day ENR+CD cells [7] = test: Long-term (48-hour) modulators of basal and CCh-induced LYZ secretion; type: cell-based, murine; details: 48-hour treatment
Description: We next sought to profile potential long-term modulators of differentiated PC survival and antimicrobial secretion, as well as gauge the interaction between long-term modulators and short-term induced secretion (via CCh). To accomplish this, we employed a similar set up as in the short-term experiment, with the exception that upon plating day 4 ENR+CD cells we additionally supplemented in either MDP, LPS, TNF-α, or IFN-γ for the additional 2 days in culture and assayed all conditions for both basal and CCh-induced LYZ secretion over 3 hours on day 6 of differentiation (FIG. 3A). […] Additionally, we see that the long-term addition reduces CCh-induced secretory function relative to the untreated control for all agents (FIG. 3D).
Small intestinal crypts were isolated from C57BL/6 mice of both sexes, aged between three to six months in all experiments. Crypts were then cultured in a Matrigel culture system. Briefly, crypts were resuspended in basal culture medium (Advanced DMEM/F12 with 2 mM GlutaMAX and 10 mM HEPES; Thermo Fisher Scientific) at a 1:1 ratio with Corning™ Matrigel™ Membrane Matrix—GFR (Fisher Scientific) and plated at the center of each well of 24-well plates. Following Matrigel polymerization, 500 μL of small intestinal crypt culture medium (basal media plus 100× N2 supplement, 50×B27 supplement; Life Technologies, 500× N-acetyl-L-cysteine; Sigma-Aldrich) supplemented with growth factors EGF—E (50 ng/mL, Life Technologies), Noggin—N (100 ng/mL, PeproTech) and R-spondin 1—R (500 ng/mL, PeproTech) and small molecules CHIR99021—C (3 μM, LC Laboratories) and valproic acid—V (1 mM, Sigma-Aldrich) was added to each well. ROCK inhibitor Y-27632—Y (10 μM, R&D Systems) was added for the first 2 days of culture. Cells were cultured at 37° C. with 5% CO2, and cell culture medium was changed every other day. After 6 days of culture, crypt organoids were isolated from Matrigel by mechanical dissociation. To expand enriched ISCs (ENR+CV/Y) or Paneth Cells (ENR+CD), organoids were cultured in 24-well plates, suspended in 40 uL 3-D gels (50-50 GFR MATRIGEL®, Basal culture media), with 500 uL of crypt media supplemented with necessary growth factors and small molecules. ROCK inhibitor (Y) was added for the first two days of ISC culture following reconstitution from cryopreservation or trypLE passaging to single cells. Cell culture medium was changed every other day. After 4 days of culture in ENR+CV, cell clusters were differentiated to PCs under the ENR+CD condition for 96-well short and long-term screens. For 384-well differentiation screens, 4-day ENR+CV clusters were passaged to single cells using trypLE, replated and expanded another 3 days in 3-D ENR+CVY and then passaged directly into screens.
For 96-well plate high-throughput screening, 4-day differentiated (ENR+CD) cell clusters in 3D Matrigel were transferred to a “2.5-D” 96-well plate culture system. Briefly, cell culture gel and medium were homogenized via mechanical disruption and centrifuged at 300 g for 3 min at 4° C. […] On the last repeat, pellet was resuspended in basal culture medium, the number of cell clusters counted, and centrifuged at 300 g for 3 min at 4° C. […] At end time points (following 2 days in culture and 3 hours of stimulation), lysozyme secretion and cell viability were assessed using Lysozyme Assay Kit and CellTiter-Glo 3D Cell Viability Assay (Promega), respectively, according to the manufacturers' protocols. […]

| Molecule | primary screen hit status in LYZ.NS and LYZ.S assays [1] | biological potency compared with Bosutinib (LYZ assays) ([2]; 6-day ENR+CD+treatment) | validation in secondary screen (SSMD above cutoff for both LYZ.NS and LYZ.S) ([2]; 6-day ENR+CD+treatment vs ENR+CD+DMSO, cutoff 0.89, 8 replicates) | secretory precursor (CD24-hi) population relative to control [3] | LYZ.S reading versus ENR+DMSO [4] | LYZ.NS/ATP, early versus full treatment ([2]; ENR+CD, 240 nM) | ATP-normalized LYZ assays (LYZ.NS/ATP, LYZ.S/ATP), early versus full treatment ([2]; ENR+CD, across all doses) | SSMD effect size as short-term modulator of LYZ secretion (6-day ENR+CD cells [5]) | effect on cellular ATP (6-day ENR+CD cells [6]) | effect size of reduction of CCh-induced secretory function relative to untreated control (6-day ENR+CD cells [7]; CCh-induced secretion over 3 hours on day 6) | change in basal LYZ secretion (SSMD effect) (6-day ENR+CD cells [7]; basal secretion over 3 hours on day 6) |
| --- | --- | --- | --- | --- | --- | --- | --- | --- | --- | --- | --- |
| Cc1cn(-c2cc(NC(=O)c3ccc(C)c(Nc4nccc(-c5cccnc5)n4)c3)cc(C(F)(F)F)c2)cn1 [Nilotinib] | strongest LYZ assay-performing treatment-dose | the more biologically potent | multiple validated doses | higher proportion | significantly lower |  |  |  |  |  |  |
| NC(=O)c1ccc(-c2nc(-c3ccc4c(c3)OCO4)c(-c3ccccn3)[nH]2)cc1 [SB431542] | strongest LYZ assay-performing treatment-dose |  |  |  |  | significant (adj. p<0.05) difference between early and full treatment | suggestive trend across all doses |  |  |  |  |
| IFN-γ: cytokine interferon-gamma |  |  |  |  |  |  |  | fairly weak effect sizes | no significant changes in cellular ATP | fairly moderate | moderate increase in secretion |
